Here are results for 26 compounds from patent US6677336B2, “Substituted piperazine compounds” (CV Therapeutics, Inc., priority 2000, dated 2004).

In the experiment the test system is mitochondrial fatty acid oxidation (rat heart mitochondria). As to the kind of experiment: Palmitoyl CoA oxidation in isolated rat heart mitochondria. The class given is biochemical. As to conditions: 100 μM compound; 15 min at 30° C; DMSO control. The protocol: Compounds of this invention were evaluated in a rat heart mitochondiral assay as set forth below.
Rat heart mitochondria were isolated by the method of Nedergard and Cannon (methods in Enzymol. 55, 3, 1979).
Palmitoyl CoA oxidation—The Palmityl CoA oxidation was carried out in a total volume of 100 micro liters containing the following agents: 110 mM KCl, 33 mM Tris buffer at pH 8, 2 mM KPi, 2 mM MgCl2, 0.1 mM EDTA, 14.7 microM defatted BSA, 0.5 mM malic acid, 13 mM carnitine, 1 mM ADP, 52 micrograms of mitochondrial protein, and 16 microM 1-C14 palmitoyl CoA (Sp. Activity 60 mCi/mmole; 20 microCi/ml, using 5 microliters per assay). The compounds of this invention were added in a DMSO solution at the following concentrations: 100 microM, 30 microM, and 3 microM. In each assay, a DMSO control was used. After 15 min at 30° C., the enzymatic reaction was centrifuged (20,000 g for 1 min), and 70 microliters of the supernatant was added to an activated reverse phase silicic acid column (approximately 0.5 ml of silicic acid). The column was eluted with 2 ml of water, and 0.5 ml of the eluent was used for scintillation counting to determine the amount of C^14 trapped as C^14 bicarbonate ion.
For the compound `C[C@H]1CN(CC(=O)Nc2ccc(N3CCOCC3)cc2)CCN1C[C@H](O)COc1ccccc1F` [Compound 57, 2-{(3S)-4-[(2S)-3-(2-fluorophenoxy)-2-hydroxypropyl]-3-methylpiperazinyl}-N-(4-morpholin-4-ylphenyl)acetamide], the “Inhibition of mitochondrial fatty acid oxidation using palmitoyl CoA as substrate - % of Control” value (shortened to “Inhibition … - % of Control”) was 73%. With `C[C@H]1CN(CC(=O)Nc2ccc(C(F)(F)F)cc2)CCN1C[C@H](O)COc1ccccc1F` [Compound 54, 2-{(3S)-4-[(2S)-3-(2-fluorophenoxy)-2-hydroxypropyl]-3-methylpiperazinyl}-N-[4-(trifluoromethyl)phenyl]acetamide] the figure was 75%; with `C[C@H]1CN(CC(=O)Nc2ccc(Cl)cc2)CCN1C[C@H](O)COc1ccccc1F` [Compound 44, 2-{(3S)-4-[(2S)-3-(2-fluorophenoxy)-2-hydroxypropyl]-3-methylpiperazinyl}-N-(4-chlorophenyl)acetamide], 81%. Consider `C[C@H]1CN(CC(=O)Nc2ccc(Cl)c(Cl)c2)CCN1C[C@H](O)COc1ccccc1F` [Compound 43, 2-{(3S)-4-[(2S)-3-(2-fluorophenoxy)-2-hydroxypropyl]-3-methylpiperazinyl}-N-(3,4-dichlorophenyl)acetamide], for which the “Inhibition … - % of Control” value was determined as 19%. Regarding `C[C@H]1CN(CC(=O)Nc2cc(Cl)cc(Cl)c2)CCN1C[C@H](O)COc1ccccc1F` [Compound 46, 2-{(3S)-4-[(2S)-3-(2-fluorophenoxy)-2-hydroxypropyl]-3-methylpiperazinyl}-N-(3,5-dichlorophenyl)acetamide], the “Inhibition … - % of Control” value came out at 7%.

As for `Cc1cccc(NC(=O)CN2CCN(C[C@H](O)COc3ccccc3F)[C@@H](C)C2)c1` [Compound 49, 2-{(3S)-4-[(2S)-3-(2-fluorophenoxy)-2-hydroxypropyl]-3-methylpiperazinyl}-N-(3-methylphenyl)acetamide], the “Inhibition … - % of Control” value was 66%. On to `C[C@H]1CN(CC(=O)Nc2ccc(Cl)c(C(F)(F)F)c2)CCN1C[C@H](O)COc1ccccc1F` [Compound 55, 2-{(3S)-4-[(2S)-3-(2-fluorophenoxy)-2-hydroxypropyl]-3-methylpiperazinyl}-N-[4-chloro-3-(trifluoromethyl)phenyl]acetamide], for which the “Inhibition … - % of Control” value is recorded as 11%. As for `C[C@H]1CN(CC(=O)Nc2ccc(N(C)C)cc2)CCN1C[C@H](O)COc1ccccc1F` [Compound 41, 2-{(3S)-4-[(2S)-3-(2-fluorophenoxy)-2-hydroxypropyl]-3-methylpiperazinyl}-N-[4-(dimethylamino)phenyl]acetamide], the figure is 64%. For the compound `COc1cc(NC(=O)CN2CCN(C[C@H](O)COc3ccccc3F)[C@@H](C)C2)cc(C(F)(F)F)c1` [Compound 28, 2-{(3S)-4-[(2S)-3-(2-fluorophenoxy)-2-hydroxypropyl]-3-methylpiperazinyl}-N-(5-methoxy-3-(trifluoromethyl)phenyl]acetamide], the “Inhibition … - % of Control” value is 59%.

Turning to `C[C@H]1CN(CC(=O)Nc2ccccc2)CCN1C[C@H](O)COc1ccccc1F` [Compound 33, 2-{(3S)-4-[(2S)-3-(2-fluorophenoxy)-2-hydroxypropyl]-3-methylpiperazinyl}-N-phenylacetamide], the “Inhibition … - % of Control” value is given as 63%. Take `Cc1ccc(NC(=O)CN2CCN(C[C@H](O)COc3ccccc3F)[C@@H](C)C2)cc1` [Compound 48, 2-{(3S)-4-[(2S)-3-(2-fluorophenoxy)-2-hydroxypropyl]-3-methylpiperazinyl}-N-(4-methylphenyl)acetamide]: the “Inhibition … - % of Control” value is recorded as 61%. As for `COc1cc(Cl)c(C)cc1NC(=O)CN1CCN(C[C@H](O)COc2ccccc2F)[C@@H](C)C1` [Compound 40, 2-{(3S)-4-[(2S)-3-(2-fluorophenoxy)-2-hydroxypropyl]-3-methylpiperazinyl}-N-(4-chloro-2-methoxy-5-methylphenyl)acetamide], the figure is 23%; as for `C[C@H]1CN(CC(=O)Nc2ccccc2Cl)CCN1C[C@H](O)COc1ccccc1F` [Compound 34, 2-{(3S)-4-[(2S)-3-(2-fluorophenoxy)-2-hydroxypropyl]-3-methylpiperazinyl}-N-(2-chlorophenyl)acetamide], 48%; as for `C=C(C)c1ccccc1NC(=O)CN1CCN(C[C@H](O)COc2ccccc2F)[C@@H](C)C1` [Compound 36, 2-{(3S)-4-[(2S)-3-(2-fluorophenoxy)-2-hydroxypropyl]-3-methylpiperazinyl}-N-[2-(1-methylvinyl)phenyl]acetamide], 61%. `COc1ccc(NC(=O)CN2CCN(C[C@H](O)COc3ccccc3F)[C@@H](C)C2)cc1` [Compound 47, 2-{(3S)-4-[(2S)-3-(2-fluorophenoxy)-2-hydroxypropyl]-3-methylpiperazinyl}-N-(4-methoxyphenyl)acetamide]: the “Inhibition … - % of Control” value worked out at 80%. `Cc1cccc(C)c1NC(=O)CN1CCN(CC(O)CCOc2ccc(F)cc2)CC1` (centres unmarked) [Compound 21, N-(2,6-dimethylphenyl)-2-{4-[4-(4-fluorophenoxy)-2-hydroxybutyl]-piperazinyl}acetamide]: the “Inhibition … - % of Control” value is on record as 87%. `C[C@H]1CN(CC(=O)Nc2c(Cl)cccc2Cl)CCN1C[C@H](O)COc1ccccc1F` [Compound 26, 2-{(3S)-4-[(2S)-3-(2-fluorophenoxy)-2-hydroxypropyl]-3-methylpiperazinyl}-N-(2,6-dichlorophenyl)acetamide]: the “Inhibition … - % of Control” value came to 0%. As for `Cc1ccc(NC(=O)CN2CCN(C[C@H](O)COc3ccccc3F)[C@@H](C)C2)c(Cl)c1` [Compound 35, 2-{(3S)-4-[(2S)-3-(2-fluorophenoxy)-2-hydroxypropyl]-3-methylpiperazinyl}-N-(2-chloro-4-methylphenyl)acetamide], the figure is 45%.

As for `COc1cc(NC(=O)CN2CCN(C[C@H](O)COc3ccccc3F)[C@@H](C)C2)cc(OC)c1OC` [Compound 59, 2-{(3S)-4-[(2S)-3-(2-fluorophenoxy)-2-hydroxypropyl]-3-methylpiperazinyl}-N-(3,4,5-trimethoxyphenyl)acetamide], the “Inhibition … - % of Control” value is listed as 76%. Take `Cc1cccc(C(C)C)c1NC(=O)CN1CCN(C[C@H](O)COc2ccccc2F)[C@@H](C)C1` [Compound 38, 2-{(3S)-4-[(2S)-3-(2-fluorophenoxy)-2-hydroxypropyl]-3-methylpiperazinyl}-N-[6-methyl-2-(methylethyl)phenyl]acetamide]: the “Inhibition … - % of Control” value is reported as 78%. With `C[C@H]1CN(CC(=O)Nc2ccc(F)cc2)CCN1C[C@H](O)COc1ccccc1F` [Compound 50, 2-{(3S)-4-[(2S)-3-(2-fluorophenoxy)-2-hydroxypropyl]-3-methylpiperazinyl}-N-(4-fluorophenyl)acetamide] the figure was 80%; with `C[C@H]1CN(CC(=O)Nc2ccc(Cl)c3ccccc23)CCN1C[C@H](O)COc1ccccc1F` [Compound 31, 2-{(3S)-4-[(2S)-3-(2-fluorophenoxy)-2-hydroxypropyl]-3-methylpiperazinyl}-N-(4-chloronaphthyl)acetamide], 87%.

For `C[C@H]1CN(CC(=O)Nc2cccc(Cl)c2)CCN1C[C@H](O)COc1ccccc1F` [Compound 45, 2-{(3S)-4-[(2S)-3-(2-fluorophenoxy)-2-hydroxypropyl]-3-methylpiperazinyl}-N-(3-chlorophenyl)acetamide], the “Inhibition … - % of Control” value came to 58%. As for `C[C@H]1CN(CC(=O)Nc2ccc(C#N)cc2)CCN1C[C@H](O)COc1ccccc1F` [Compound 51, 2-{(3S)-4-[(2S)-3-(2-fluorophenoxy)-2-hydroxypropyl]-3-methylpiperazinyl}-N-(4-cyanophenyl)acetamide], the “Inhibition … - % of Control” value is 99%. With `COc1ccc(NC(=O)CN2CCN(C[C@H](O)COc3ccccc3F)[C@@H](C)C2)cc1F` [Compound 58, 2-{(3S)-4-[(2S)-3-(2-fluorophenoxy)-2-hydroxypropyl]-3-methylpiperazinyl}-N-(3-fluoro-4-methoxyphenyl)acetamide] the figure was 81%. With `Cc1cccc(CO)c1NC(=O)CN1CCN(C[C@H](O)COc2ccccc2F)[C@@H](C)C1` [Compound 62] the figure was 66%.
